Data taken from the supplement of paper PMC10307832.

Legend:
Assay in all cases: relative viability (nuclei count vs DMSO), 5 days (fraction); higher = more cells survive
Selumetinib + Dasatinib = compound: Cn1cnc2c(F)c(Nc3ccc(Br)cc3Cl)c(C(=O)NOCCO)cc21 [Selumetinib] + Cc1nc(Nc2ncc(C(=O)Nc3c(C)cccc3Cl)s2)cc(N2CCN(CCO)CC2)n1 [Dasatinib] (partner 0.075 µM)
Method in brief: (§1)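 The day after seeding in 1536-well plates, lung cancer cell lines were treated by pin tool with a single drug, or with a fixed anchor-drug dose together with five library-drug doses (not always all listed) in √10 steps. After 5 days, a combined fix-and-stain solution (final 0.05% Triton X-100, 1% formaldehyde, 1 ug/ml Hoechst) was added. Nuclei counted on 4× images gave relative viability as treated counts over vehicle counts, reported as the median of duplicate plates.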

Venetoclax + Bortezomib = compound: CC1(C)CCC(CN2CCN(c3ccc(C(=O)NS(=O)(=O)c4ccc(NCC5CCOCC5)c([N+](=O)[O-])c4)c(Oc4cnc5[nH]ccc5c4)c3)CC2)=C(c2ccc(Cl)cc2)C1 [Venetoclax] + CC(C)C[C@H](NC(=O)[C@H](Cc1ccccc1)NC(=O)c1cnccn1)B(O)O [Bortezomib] (partner 0.002 µM)
Method in brief: as §1

Selumetinib + Luminespib = compound: Cn1cnc2c(F)c(Nc3ccc(Br)cc3Cl)c(C(=O)NOCCO)cc21 [Selumetinib] + CCNC(=O)c1noc(-c2cc(C(C)C)c(O)cc2O)c1-c1ccc(CN2CCOCC2)cc1 [Luminespib] (partner 0.01 µM)
Method in brief: as §1

Venetoclax + Decitabine = compound: CC1(C)CCC(CN2CCN(c3ccc(C(=O)NS(=O)(=O)c4ccc(NCC5CCOCC5)c([N+](=O)[O-])c4)c(Oc4cnc5[nH]ccc5c4)c3)CC2)=C(c2ccc(Cl)cc2)C1 [Venetoclax] + Nc1ncn([C@H]2C[C@H](O)[C@@H](CO)O2)c(=O)n1 [Decitabine] (partner 2 µM)
Method in brief: as §1

Row | Cell Line | relative viability (Selumetinib + Dasatinib; first compound 0.02 µM) | relative viability (Selumetinib + Dasatinib; first compound 0.06325 µM) | relative viability (Selumetinib + Dasatinib; first compound 0.2 µM) | relative viability (Selumetinib + Dasatinib; first compound 0.6325 µM) | relative viability (Venetoclax + Bortezomib; first compound 0.01 µM) | relative viability (Venetoclax + Bortezomib; first compound 0.03162 µM) | relative viability (Venetoclax + Bortezomib; first compound 0.1 µM) | relative viability (Venetoclax + Bortezomib; first compound 0.3162 µM) | relative viability (Venetoclax + Bortezomib; first compound 1 µM) | relative viability (Selumetinib + Luminespib; first compound 0.02 µM) | relative viability (Selumetinib + Luminespib; first compound 0.06325 µM) | relative viability (Selumetinib + Luminespib; first compound 0.2 µM) | relative viability (Selumetinib + Luminespib; first compound 0.6325 µM) | relative viability (Venetoclax + Decitabine; first compound 0.01 µM) | relative viability (Venetoclax + Decitabine; first compound 0.03162 µM) | relative viability (Venetoclax + Decitabine; first compound 0.1 µM) | relative viability (Venetoclax + Decitabine; first compound 0.3162 µM) | relative viability (Venetoclax + Decitabine; first compound 1 µM)
1 | NCI-H1792 | 0.787 | 0.802 | 0.704 | 0.597 | 0.764 | 0.928 | 1.05 | 0.924 | 0.86 | 0.387 | 0.408 | 0.379 | 0.313 | 0.522 | 0.506 | 0.468 | 0.502 | 0.463
2 | NCI-H1915 | 0.302 | 0.281 | 0.225 | 0.174 | 0.972 | 0.965 | 0.908 | 0.971 | 0.919 | 0.887 | 0.744 | 0.587 | 0.373 | 0.23 | 0.279 | 0.258 | 0.258 | 0.258
3 | NCI-H1975 | 0.333 | 0.299 | 0.272 | 0.269 | 0.424 | 0.393 | 0.35 | 0.344 | 0.299 | 0.143 | 0.209 | 0.175 | 0.183 | 0.358 | 0.371 | 0.414 | 0.393 | 0.43
4 | NCI-H1993 | 0.545 | 0.534 | 0.572 | 0.609 | 1.05 | 1.19 | 0.988 | 1.04 | 1.02 | 0.786 | 0.776 | 0.695 | 0.569 | 0.505 | 0.673 | 0.541 | 0.621 | 0.552
5 | NCI-H2009 | 0.233 | 0.183 | 0.163 | 0.151 | 1.09 | 0.951 | 1.03 | 0.991 | 1.02 | 0.826 | 0.753 | 0.558 | 0.371 | 0.441 | 0.41 | 0.345 | 0.352 | 0.358
6 | NCI-H2023 | 0.534 | 0.484 | 0.562 | 0.448 | 0.964 | 1 | 1.03 | 1.01 | 0.853 | 0.947 | 0.669 | 0.575 | 0.575 | 0.218 | 0.23 | 0.23 | 0.237 | 0.234
7 | NCI-H2085 | 0.25 | 0.23 | 0.204 | 0.215 | 0.976 | 1.14 | 1.07 | 0.923 | 0.946 | 0.527 | 0.402 | 0.376 | 0.326 | 0.549 | 0.59 | 0.582 | 0.566 | 0.565
8 | NCI-H2087 | 0.535 | 0.293 | 0.273 | 0.13 | 0.808 | 0.766 | 1 | 0.83 | 0.753 | 0.167 | 0.193 | 0.148 | 0.147 | 0.316 | 0.335 | 0.267 | 0.23 | 0.29
9 | NCI-H2126 | 0.484 | 0.483 | 0.498 | 0.515 | 1.05 | 1.12 | 1.09 | 1.14 | 1.11 | 0.839 | 0.756 | 0.792 | 0.782 | 0.579 | 0.616 | 0.601 | 0.56 | 0.548
10 | NCI-H2347 | 0.262 | 0.189 | 0.184 | 0.191 | 0.927 | 1.5 | 1.14 | 1.03 | 1.02 | 0.431 | 0.287 | 0.272 | 0.332 | 0.616 | 0.59 | 0.651 | 0.662 | 0.738
11 | NCI-H2405 | 0.216 | 0.22 | 0.17 | 0.187 | 0.956 | 1.09 | 0.94 | 0.982 | 0.907 | 0.603 | 0.597 | 0.426 | 0.327 | 0.763 | 0.683 | 0.74 | 0.717 | 0.633
12 | NCI-H3122 | 0.712 | 0.702 | 0.684 | 0.534 | 1.06 | 0.968 | 1.01 | 0.985 | 1.02 | 0.0969 | 0.0828 | 0.0994 | 0.0908 | 0.349 | 0.419 | 0.378 | 0.373 | 0.432
13 | PC-3 [JPC-3] | 0.974 | 0.99 | 0.976 | 0.841 | 0.764 | 0.822 | 0.794 | 0.771 | 0.829 | 0.721 | 0.625 | 0.458 | 0.442 | 0.854 | 0.788 | 0.931 | 0.809 | 0.805
14 | PC-14 | 0.265 | 0.26 | 0.256 | 0.217 | 0.765 | 0.939 | 0.843 | 0.839 | 0.789 | 0.147 | 0.177 | 0.163 | 0.151 | 0.298 | 0.164 | 0.224 | 0.207 | 0.213
15 | RERF-LC-KJ | 0.883 | 0.792 | 0.714 | 0.766 | 1.08 | 1.31 | 1.19 | 1.22 | 1.05 | 1.32 | 0.924 | 1.06 | 0.987 | 0.69 | 0.73 | 0.69 | 0.666 | 0.611
16 | SK-LU-1 | 0.177 | 0.208 | 0.181 | 0.141 | 0.937 | 1.19 | 1.24 | 1.34 | 1.08 | 0.183 | 0.17 | 0.178 | 0.181 | 0.568 | 0.738 | 0.639 | 0.609 | 0.549
17 | SW 1573 | 0.589 | 0.362 | 0.534 | 0.446 | 0.983 | 1.06 | 1.02 | 1.18 | 0.997 | 0.207 | 0.168 | 0.214 | 0.228 | 0.526 | 0.553 | 0.572 | 0.475 | 0.437
